Experimental data reported in patent publication US20090137544A1 (priority 2006, published 2009).
Read-outs that look alike come from different tables or passages of the source.

How the values were obtained:
[1] = tested on: Hedgehog signaling activity; experiment: Gli-luciferase reporter assay in rat hepatic stellate cell line; type: cell-based; settings: for CONCENTRATION REGION restoring Hedgehog signaling activity / PREFERRED CONCENTRATION restoring Hedgehog signaling activity: alcohol-treated hepatic stellate cells; for efficacy order on hedgehog signaling: fish and rat liver cell line
Experimental: The Gli-luciferase reporter assay was performed in duplicated experiments of a rat hepatic stellate cell line, […]. Briefly, […] cells, were grown in DMEM medium supplemented with 10% fetal bovine serum and penicillin and streptomycin (100 U/ml). At 40-50% confluency, cells were transfected with Gli-BS-Firefly luciferase plasmid (60 ng nl^−1) and Renilla luciferase plasmid ([…], pRL-TK, Promega) (concentration ratio 10:1) by using FuGENE 6 Transfection Reagent (Roche Applied Science). […] Two hours later, the medium was added to different drugs (20α-OHC, 22(S)-OHC, 25-OHC and cholesterol). After 16 hrs, the cells were washed three times in ice-cold PBS, and then were assayed by Dual/Luciferase Reporter Assay System (Promega). Activity of the Firefly luciferase reporter was normalized to the activity of a Renilla luciferase internal control for transfection efficiency.

[2] = tested on: zebra fish embryos; experiment: Zebra fish embryo exposure to alcohol, cyclopamine or AY-9944: survival and phenotype; settings: for developmental malformations of treated embryos: transient treatment during gastrulation, alcohol 2%, cyclopamine 10.0 μM, AY-9944 7.5 μM
[3] = tested on: Hh-responsive Gli-BS luciferase reporter; experiment: Gli-luciferase reporter assay in embryos; type: in vivo, zebra fish
Experimental: The Gli-luciferase reporter assay was performed in replicate experiments of pooled embryos (n=15). Briefly, zebra fish embryos at the 1-2 cell stage were microinjected with 0.5 nl of Gli-BS-Firefly luciferase plasmid (60 ng nl^−1) and Renilla luciferase plasmid (60 ng nl^−1, pRL-TK, Promega). Reporter activity was determined by using the Dual-Luciferase Reporter Assay System (Promega). Activity of the Firefly luciferase reporter was normalized to the activity of a Renilla luciferase internal control for transfection efficiency.
(§1) Embryos were microinjected at 1-2 cell stage with 0.2 nl of 5 μg μl^−1 ([…]) cholesterol (BioVision Inc.) with or without the two plasmids for the Gli-luciferase reporter assay. […] At 48 hpf embryos were analyzed.

[4] = tested on: Shh
[5] = tested on: Caveolin-1/Shh complex; settings: alcohol 0.3, 0.5, 0.6, 0.8% w/v for 2 hours
Text: First, as described in FIG. 6, cellular proteins isolated by non-ionic detergent resistant cellular extraction were fractionalized by density gradient ultracentrifugation. […] Fractions 7 through 9 from the density gradient were pooled and used in the immunoprecipitation assay.

[6] = tested on: zebra fish embryos; settings: 2.0% alcohol for 6 hours from 4.3 hpf, no supplement; 72 hpf
[7] = tested on: zebra fish embryos; experiment: Cholesterol microinjection rescue of alcohol-exposed embryos; type: in vivo; settings: 48 hpf
Experimental: as §1

[8] = alcohol exposure during gastrulation, dose-related
Experimental: Cholesterol content was then measured by the Arnplex Red Cholesterol Assay Kit (Invitrogen).

[9] = tested on: zebra fish embryos; settings: zebrafish, in vivo
[10] = tested on: Shh target genes Ptc, Gli1, Nkx2.2; settings: real-time quantitative PCR
Experimental: Total RNA was extracted from embryos (n=10) with RNeasy kits (Qiagen). RT-PCR were performed using primers (information listed in following table) as previously described.^52

[11] = chronic alcohol feeding versus both control groups, p<0.001
[12] = tested on: Shh secretion; settings: 3 hours, HSC 8B cells, Elisa
Experimental: Applicant analyzed proteins collected from the HSC 8B culture medium for Shh ligand content using two independent methods: Western blot analysis and Elisa assay. […] The cultures were incubated for an additional 3 hours, and culture medium was then harvested and concentrated for protein isolation.

[13] = alcohol-exposed embryos
Text: Upon esterified reaction, then the cholesterol ester can be transported from the embryonic yolk to the body. […] The fluorescent molecule, Filipin can selectively bind to free cholesterol, but not cholesterol ester; in other hand, the dye of oil red O identifies neutral lipids molecules such as cholesterol ester, but not polarized free cholesterol. First, applicant quantitatively analyzed the free cholesterol by whole mount in situ filipin staining.

[14] = tested on: Shh; settings: 0.6% alcohol (w/v, 109 mM) for 30 minutes
[15] = tested on: Shh; remark: listed apart in the source
[16] = tested on: Shh; settings: alcohol-exposed embryos, Western blot
Text: Total cellular protein was isolated as previously described^51 and cell membrane proteins were isolated using the Mem-PER(r) Eukaryotic Membrane Protein Extraction Reagent Kit (Pierce Biotechnology). Proteins (4o μg) in Laemmli buffer were then separated by 12% Tris-HCl SDS-polyacrylamide gel electrophoresis and transferred to a PVDF membrane. Membranes were blocked, washed, and exposed to primary antibodies (Santa Cruz Biotechnology) against Shh (N-19, Catalog number: sc-1194; dilution: 1:2.500) and β-actin (1:1.000). Signals were detected by Anti-goat HRP antibody (1:10.000, Amersham).

## 2,6,10,15,19,23-Hexamethyl-2,6,20,24,28,22-Tetracosahexaene [Squalene]
[1]
  CONCENTRATION REGION restoring Hedgehog signaling activity: 0.1 to 100 µM
  PREFERRED CONCENTRATION restoring Hedgehog signaling activity: 1 to 10 µM
  efficacy order on hedgehog signaling: efficacy order is 25-OHC, 22(S)-OHC, cholesterol, 20α-OHC and followed with squalene

## CC(C)CCC[C@](C)(O)[C@H]1CC[C@H]2[C@@H]3CC=C4C[C@@H](O)CC[C@]4(C)[C@H]3CC[C@@]21C [20α-Hydroxycholesterol, 20-hydroxycholesterol]
[1]
  CONCENTRATION REGION restoring Hedgehog signaling activity: 0.1 to 100 µM
  PREFERRED CONCENTRATION restoring Hedgehog signaling activity: 1 to 5 µM
  efficacy order on hedgehog signaling: efficacy order is 25-OHC, 22(S)-OHC, cholesterol, 20α-OHC and followed with squalene

## CC(C)CCC(O)[C@@H](C)[C@H]1CC[C@H]2[C@@H]3CC=C4C[C@@H](O)CC[C@]4(C)[C@H]3CC[C@]12C (stereo partly drawn) [22(S)-Hydroxycholesterol, 5-cholestene-3b,22-diol]
[1]
  CONCENTRATION REGION restoring Hedgehog signaling activity: 0.1 to 100 µM
  PREFERRED CONCENTRATION restoring Hedgehog signaling activity: 1 to 5 µM
  efficacy order on hedgehog signaling: efficacy order is 25-OHC, 22(S)-OHC, cholesterol, 20α-OHC and followed with squalene

## C[C@H](CCCC(C)(C)O)[C@H]1CC[C@H]2[C@@H]3CC=C4C[C@@H](O)CC[C@]4(C)[C@H]3CC[C@]12C [25-hydroxycholesterol, 5-cholestene-3b,25-diol]
[1]
  CONCENTRATION REGION restoring Hedgehog signaling activity: 0.1 to 100 µM
  PREFERRED CONCENTRATION restoring Hedgehog signaling activity: 5 to 15 µM
  efficacy order on hedgehog signaling: efficacy order is 25-OHC, 22(S)-OHC, cholesterol, 20α-OHC and followed with squalene

## Cl.Cl.Clc1ccccc1CNC[C@H]1CC[C@H](CNCc2ccccc2Cl)CC1 [AY-9944, trans-1,4 bis-(2-dichlorobenzylaminomethyl) cyclohexane dihydrochloride, reference compound]
[2]
  developmental malformations of treated embryos: HPE and partial cyclopia, as well as underdevelopment of the craniofacial bones and muscles, and failure of the heart tube to loop

## CCO [Alcohol, ethanol]
[3]; following alcohol exposure (0.25-2.0%)
  Gli-BS luciferase activity in embryos: decreased in a dose-related fashion
[2]; 0.25% alcohol for 6 h, late blastula-gastrula stage (second window)
  survival rate at 48 hpf: over 90%
[2]; 0.25% alcohol, first exposure window (1 to 2 cell stages to 3 hpf)
  embryos survived to 48 hpf: < 40%
[2]; 0.25% alcohol, second exposure window
  embryos that failed to survive to 48 hpf: < 10%
[2]; 2% alcohol, second exposure window
  embryos survived through 48 hpf with abnormal morphology: 84%
[2]; 2% alcohol, second exposure window, 48 hpf
  embryos for which exposure was lethal: 13%
[4]; 0.6% (w/v) alcohol for one hour
  Shh distribution pattern relative to ER marker: diffuse, homogeneous distribution pattern
[4]; alcohol 0.4% and 0.8% (w/v) for thirty minutes
  punctate co-localized Caveolin-1/Shh particles: dramatically decreased in an alcohol dose dependent manner
[5]
  amount of Caveolin-1 in the lipid raft fractions: did not affect the amount of Caveolin-1
  amount of Shh in Caveolin-1 containing lipid raft fractions (fractions 7-9): decreased in an alcohol dose-dependent manner
[6]
  embryos developed relatively normal on gross morphology: 15%
[7]; alcohol-exposed, unsupplemented embryos
  embryos with FASD-like phenotypes: 83.3%
[8]
  total cholesterol content of the embryos: decrease in the total cholesterol content
[9]
  embryos alive at 48 hpf: 10%
  embryos alive with minimal abnormalities at 48 hpf: 18%
  embryos alive with normal phenotypes at 48 hpf: 72.3%
  living embryos phenotypically normal at 48 hpf: 2.6%
[1]; alcohol 0.25, 0.5, 0.75 and 1.0% v/v versus no alcohol (A0)
  Hedgehog signaling (Gli binding site derived luciferase activities) in hepatic stellate cells: decrease Hedgehog signaling activates
[10]; 0.25% alcohol
  change in expression of Ptc or Gli1: no significant change
  decrease of Nkx2.2 expression: about 50%
[10]; alcohol concentrations higher than 1.0%
  Shh transcription: decreased
[11]
  ratio of cholesterol ester to total cholesterol in plasma: significantly decreased
[12]; 0.3% (55 mM) alcohol
  decrease in Shh secretion: 1.2 fold
[12]; 0.6% (109 mM) alcohol
  decrease in Shh secretion: 4.2 fold
[12]; 0.8% (136 mM) alcohol
  decrease in Shh secretion: 5.5 fold
[13]
  cholesterol ester (oil red O staining) in embryo yolk and body: dramatic decrease of cholesterol ester in the embryonic yolk, with little or no change in its concentration in the embryonic body
  free cholesterol (filipin staining) in embryo body and yolk: large decrease in cholesterol concentration in the embryonic body, but not in the embryonic yolk
[14]
  density gradient distribution of Shh: restricted to fractions 12 through 17
[15]; alcohol 0.25% v/v for 5 minutes
  co-localization of Shh and lipid raft: disrupted
[15]; alcohol 1% for one hour
  Shh localization: almost all of the Shh protein was accumulated inside of the liver stellate cells
[16]
  Shh in cellular membrane protein fraction: progressive loss of Shh from the cellular membrane protein fraction

## CC(C)CCC[C@@H](C)[C@H]1CC[C@H]2[C@@H]3CC=C4C[C@@H](O)CC[C@]4(C)[C@H]3CC[C@]12C [Cholesterol, 10,13-dimethyl-17-(6-methylheptan-2-yl)-2,3,4,7,8,9,11,12,14,15,16,17-dodecahydro-1H-cyclopenta[a]phenanthren-3-ol]
[3]; cholesterol 10 pg microinjected at 1-2 cell stage, various alcohol concentrations during gastrulation
  Gli-BS reporter activity in cholesterol-supplemented, alcohol-exposed embryos: preserved at all doses of alcohol exposure
[7]; cholesterol-supplemented (10 pg), alcohol-exposed embryos
  embryos that appeared grossly normal: 94.8%
[1]
  CONCENTRATION REGION restoring Hedgehog signaling activity: 1 to 50 µM
  PREFERRED CONCENTRATION restoring Hedgehog signaling activity: 1 to 20 µM
  efficacy order on hedgehog signaling: efficacy order is 25-OHC, 22(S)-OHC, cholesterol, 20α-OHC and followed with squalene

## CC1=C2C[C@H]3[C@@H](CC=C4C[C@@H](O)CC[C@@]43C)[C@@H]2CC[C@]12O[C@@H]1C[C@H](C)CN[C@H]1[C@H]2C [cyclopamine, 11-deoxojervine, reference compound]
[2]
  developmental malformations of treated embryos: HPE and partial cyclopia, as well as underdevelopment of the craniofacial bones and muscles, and failure of the heart tube to loop
